According to US7199157B2, “Use of treprostinil to improve kidney functions” (United Therapeutics Corporation, priority 2003, dated 2007):

Assays:
[1] = system: patients suffering from poor kidney function; test: Administration of Treprostinil to humans suffering from kidney malfunction/failure (chronic continuous subcutaneous infusion)
Description: The target dose is determined by titration in patients for a clinical effect. The medication is delivered by a small pump that is connected to a catheter placed under the skin. In this manner, increasing dosages of Treprostinil are administered to patients by chronic continuous subcutaneous infusion. […] An example of one target dose is 10 ng/kg/min.

[2] = system: human pulmonary arterial smooth muscle cells; conditions: cited from earlier work
[3] = system: human alveolar macrophages; conditions: cited from earlier work
[4] = system: patients with class III or class IV heart failure; conditions: cited from earlier work

Q: Which results are given for CCCCC[C@H](O)CC[C@@H]1[C@H]2Cc3cccc(OCC(=O)[O-])c3C[C@H]2C[C@H]1O.[Na+] [Treprostinil]?
A: urine production ([1]; at least two patients with poor kidney function, also on dialysis, treatment over the course of several weeks): improved urine production; common side effects ([1]; at peak dose, continuous subcutaneous infusion): headache and nausea; proliferation of human pulmonary arterial smooth muscle cells [2]: inhibits proliferation; inflammatory cytokine (tumor necrosis factor-α, interleukin-1β, interleukin-6, granulocyte macrophage colony-stimulating factor) secretion and gene expression [3]: inhibits; vasodilator effects [4]: vasodilator effects
